Data published in article PMC5659294 (Pharmacogenetics and genomics, 2017).
Read-outs that look alike come from different tables or passages of the source. Each block holds one molecule with its values, some of them ahead of it.

Format: in vivo, human

Association of season with N-desmethyltamoxifen concentration, β (secondary screen, fall compared to winter): −1.053
Association of weight with N-desmethyltamoxifen concentration, β (secondary screen, greater weight): −0.025
Structure (SMILES): CC/C(=C(\c1ccccc1)c1ccc(OCCNC)cc1)c1ccccc1 [N-desmethyltamoxifen]

Final multivariable model, steady-state endoxifen concentration, B Coefficient (95% Confidence Interval) (CYP2C9 Activity Phenotype): .20 (0.03, 0.37)
Final multivariable model, steady-state endoxifen concentration, B Coefficient (95% Confidence Interval) (CYP2D6 Diplotype IM/IM (vs. NM/NM)): −.87 (−1.4, −.34)
Final multivariable model, steady-state endoxifen concentration, B Coefficient (95% Confidence Interval) (CYP2D6 Diplotype IM/PM (vs. NM/NM)): −.96 (−1.3, −.61)
Final multivariable model, steady-state endoxifen concentration, B Coefficient (95% Confidence Interval) (CYP2D6 Diplotype NM/IM (vs. NM/NM)): −.35 (−.61, −.08)
Final multivariable model, steady-state endoxifen concentration, B Coefficient (95% Confidence Interval) (CYP2D6 Diplotype NM/PM (vs. NM/NM)): −.49 (−.73, −.26)
Final multivariable model, steady-state endoxifen concentration, B Coefficient (95% Confidence Interval) (CYP2D6 Diplotype PM/PM (vs. NM/NM)): −1.32 (−1.79, −.85)
Final multivariable model, steady-state endoxifen concentration, B Coefficient (95% Confidence Interval) (Season of Sample Collection Fall (vs. winter)): −.48 (−.74, −.22)
Final multivariable model, steady-state endoxifen concentration, B Coefficient (95% Confidence Interval) (Season of Sample Collection Summer (vs. winter)): −.49 (−.79, −.19)
Final multivariable model, steady-state endoxifen concentration, B Coefficient (95% Confidence Interval) (Weight (kg)): −.013 (−.02, −.01)
Association of SULT1A1 activity with endoxifen/4-OH-tamoxifen ratio, β (secondary screen, higher SULT1A1 predicted activity phenotype): 0.54
Association of CYP2C8 activity with ratio of endoxifen to N-desmethyltamoxifen, β (secondary screen, increased CYP2C8 predicted activity phenotype): 0.01
Mean Endoxifen (Std. Dev.) (steady state, tamoxifen 20 mg daily, ABCB1 predicted activity phenotype Normal): 7.01 (4.41) n=60 ng/mL
Mean Endoxifen (Std. Dev.) (steady state, tamoxifen 20 mg daily, ABCB1 predicted activity phenotype Poor): 8.93 (7.53) n=37 ng/mL
Mean Endoxifen (Std. Dev.) (steady state, tamoxifen 20 mg daily, ABCC2 predicted activity phenotype Normal): 8.29 (4.99) n=89 ng/mL
Mean Endoxifen (Std. Dev.) (steady state, tamoxifen 20 mg daily, ABCC2 predicted activity phenotype Poor): 9.30 (5.34) n=10 ng/mL
Mean Endoxifen (Std. Dev.) (steady state, tamoxifen 20 mg daily, ABCG2 predicted activity phenotype Normal): 7.90 (5.48) n=249 ng/mL
Mean Endoxifen (Std. Dev.) (steady state, tamoxifen 20 mg daily, ABCG2 predicted activity phenotype Poor): 12.82 (10.85) n=3 ng/mL
Mean Endoxifen (Std. Dev.) (steady state, tamoxifen 20 mg daily, CYP1A1 predicted activity phenotype Normal): 8.05 (5.51) n=248 ng/mL
Mean Endoxifen (Std. Dev.) (steady state, tamoxifen 20 mg daily, CYP1A1 predicted activity phenotype Poor): 3.19 (1.53) n=2 ng/mL
Mean Endoxifen (Std. Dev.) (steady state, tamoxifen 20 mg daily, CYP1A2 predicted activity phenotype Normal): 8.13 (4.48) n=22 ng/mL
Mean Endoxifen (Std. Dev.) (steady state, tamoxifen 20 mg daily, CYP1A2 predicted activity phenotype Poor): 9.57 (6.18) n=6 ng/mL
Mean Endoxifen (Std. Dev.) (steady state, tamoxifen 20 mg daily, CYP2A6 predicted activity phenotype Normal): 7.95 (5.57) n=220 ng/mL
Mean Endoxifen (Std. Dev.) (steady state, tamoxifen 20 mg daily, CYP2A6 predicted activity phenotype Poor): 7.46 (9.71) n=5 ng/mL
Mean Endoxifen (Std. Dev.) (steady state, tamoxifen 20 mg daily, CYP2B6 predicted activity phenotype Normal): 8.11 (5.33) n=151 ng/mL
Mean Endoxifen (Std. Dev.) (steady state, tamoxifen 20 mg daily, CYP2B6 predicted activity phenotype Poor): 8.20 (4.81) n=24 ng/mL
Mean Endoxifen (Std. Dev.) (steady state, tamoxifen 20 mg daily, CYP2C8 predicted activity phenotype Normal): 8.38 (5.72) n=205 ng/mL
Mean Endoxifen (Std. Dev.) (steady state, tamoxifen 20 mg daily, CYP2C8 predicted activity phenotype Poor): 6.71 (5.04) n=13 ng/mL
Mean Endoxifen (Std. Dev.) (steady state, tamoxifen 20 mg daily, CYP2C9 predicted activity phenotype Normal): 8.29 (5.61) n=189 ng/mL
Mean Endoxifen (Std. Dev.) (steady state, tamoxifen 20 mg daily, CYP2C9 predicted activity phenotype Poor): 6.26 (4.82) n=9 ng/mL
Mean Endoxifen (Std. Dev.) (steady state, tamoxifen 20 mg daily, CYP2C19 predicted activity phenotype Normal): 7.64 (5.97) n=109 ng/mL
Mean Endoxifen (Std. Dev.) (steady state, tamoxifen 20 mg daily, CYP2C19 predicted activity phenotype Poor): 7.95 (5.66) n=13 ng/mL
Mean Endoxifen (Std. Dev.) (steady state, tamoxifen 20 mg daily, CYP2E1 predicted activity phenotype Normal): 8.03 (5.40) n=84 ng/mL
Mean Endoxifen (Std. Dev.) (steady state, tamoxifen 20 mg daily, CYP3A4 predicted activity phenotype Normal): 7.78 (5.39) n=288 ng/mL
Mean Endoxifen (Std. Dev.) (steady state, tamoxifen 20 mg daily, CYP3A5 predicted activity phenotype Normal): 8.51 (7.70) n=8 ng/mL
Mean Endoxifen (Std. Dev.) (steady state, tamoxifen 20 mg daily, CYP3A5 predicted activity phenotype Poor): 7.71 (5.29) n=240 ng/mL
Mean Endoxifen (Std. Dev.) (steady state, tamoxifen 20 mg daily, SLCO1B1 predicted activity phenotype Normal): 8.63 (5.57) n=87 ng/mL
Mean Endoxifen (Std. Dev.) (steady state, tamoxifen 20 mg daily, SLCO1B1 predicted activity phenotype Poor): 6.97 (4.21) n=62 ng/mL
Mean Endoxifen (Std. Dev.) (steady state, tamoxifen 20 mg daily, SULT1A1 predicted activity phenotype Normal): 7.56 (4.51) n=111 ng/mL
Mean Endoxifen (Std. Dev.) (steady state, tamoxifen 20 mg daily, SULT1A1 predicted activity phenotype Poor): 7.81 (6.59) n=45 ng/mL
Mean Endoxifen (Std. Dev.) (steady state, tamoxifen 20 mg daily, SULT1A2 predicted activity phenotype Normal): 7.94 (5.23) n=84 ng/mL
Mean Endoxifen (Std. Dev.) (steady state, tamoxifen 20 mg daily, SULT1A2 predicted activity phenotype Poor): 7.72 (5.70) n=74 ng/mL
Mean Endoxifen (Std. Dev.) (steady state, tamoxifen 20 mg daily, UGT2B7 predicted activity phenotype Normal): 7.11 (5.09) n=73 ng/mL
Mean Endoxifen (Std. Dev.) (steady state, tamoxifen 20 mg daily, UGT2B7 predicted activity phenotype Poor): 8.38 (5.36) n=63 ng/mL
Mean Endoxifen (Std. Dev.) (steady state, tamoxifen 20 mg daily, UGT2B15 predicted activity phenotype Normal): 8.07 (5.82) n=71 ng/mL
Mean Endoxifen (Std. Dev.) (steady state, tamoxifen 20 mg daily, UGT2B15 predicted activity phenotype Poor): 7.75 (4.48) n=75 ng/mL
Mean Endoxifen (Std. Dev.) (steady state, tamoxifen 20 mg daily, UGT2B17 predicted activity phenotype Normal): 7.83 (5.25) n=122 ng/mL
Mean Endoxifen (Std. Dev.) (steady state, tamoxifen 20 mg daily, UGT2B17 predicted activity phenotype Poor): 6.60 (5.48) n=35 ng/mL
Structure (SMILES): CC/C(=C(\c1ccc(O)cc1)c1ccc(OCCNC)cc1)c1ccccc1 [endoxifen]

tamoxifen concentrations by season of sample collection (steady state, tamoxifen 20 mg daily): not different between the seasons
Structure (SMILES): CC/C(=C(\c1ccccc1)c1ccc(OCCN(C)C)cc1)c1ccccc1 [tamoxifen, reference compound]
